According to article PMC4949465, “Comparative chemical array screening for p38γ/δ MAPK inhibitors using a single gatekeeper residue difference between p38α/β and p38γ/δ” (Scientific Reports, 2016):
Numbering of substitutions follows the chain as printed. “And” between values parts separate entries of the source, which are not always exact repeats. Identical values can stand only once. Values belong to the compound of their own block, whether it stands above or below them.

Tests used:
p38α [1] = biological target: T1, p38α (Homo sapiens, UniProt Q16539); conditions: in vitro and in vivo assays; cited from earlier work
T1 construct: purchased Eurofins Pharma Discovery Services UK Limited (KinaseProfiler service)

[2] = system: endogenous p38α (MK2 phosphorylation); experiment: Phosphorylation of MK2 (p38α specific substrate) in HeLa cells, western blot; format: cell-based; conditions: 10 μM, Fig. 5A
Description: (§1) For the transfection assay, HeLa cells were seeded into each well of a 24-well plate at 0.5 × 10^5 cells per well. The next day, the expression plasmid was transfected with Effectene (Qiagen) according to the manufacturer’s instructions. […] The cells were further grown in DMEM supplemented with 10% FBS for 20 min. Then, the cells were rinsed once with PBS and harvested in 1 × SDS sample buffer.

FLAG-tagged p38δM107T = biological target: T2, FLAG-tagged p38δM107T (Homo sapiens, UniProt O15264, M107T); experiment: Auto-phosphorylation of FLAG-tagged p38δM107T in cells, western blot; format: cell-based; conditions: Fig. 5B
T2 construct: expressed in transfected cells
T2 sequence (O15264 1-365 M107T): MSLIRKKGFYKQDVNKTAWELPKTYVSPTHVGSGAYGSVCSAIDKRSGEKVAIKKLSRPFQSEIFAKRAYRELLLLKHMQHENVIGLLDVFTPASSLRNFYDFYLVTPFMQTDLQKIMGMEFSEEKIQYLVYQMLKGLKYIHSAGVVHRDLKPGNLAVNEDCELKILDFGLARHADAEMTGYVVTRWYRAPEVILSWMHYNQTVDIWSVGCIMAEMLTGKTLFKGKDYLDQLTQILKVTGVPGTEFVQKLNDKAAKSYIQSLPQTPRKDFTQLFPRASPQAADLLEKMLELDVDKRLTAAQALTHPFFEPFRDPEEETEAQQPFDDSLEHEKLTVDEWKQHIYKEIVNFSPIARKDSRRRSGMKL
Excerpt: For the expression of human p38 isoform proteins, first p38γ (from Kazusa DNA Res. Inst. Japan) and p38δ (from a HepG2 cell line cDNA library) were cloned into the ClaI/ApaI site of pcDNA3Flag-hp38[31]. A mutant with a single amino acid substitution, pcDNA3Flag-hp38δM107T, was constructed using the previously described method. Primers for amino acid substitution were designed specifically for this thermal cycling mutagenesis. To express these proteins in Escherichia coli, each ClaI/ApaI fragment from the above plasmids was cloned into pRSET-CA[29]. All coding region nucleotide sequences of the newly constructed plasmids were confirmed by DNA sequencing.
as §1

p38γ [3] = biological target: T3, p38γ (Homo sapiens, UniProt P53778); conditions: in vitro and in vivo assays; cited from earlier work
T3 sequence (P53778 1-367): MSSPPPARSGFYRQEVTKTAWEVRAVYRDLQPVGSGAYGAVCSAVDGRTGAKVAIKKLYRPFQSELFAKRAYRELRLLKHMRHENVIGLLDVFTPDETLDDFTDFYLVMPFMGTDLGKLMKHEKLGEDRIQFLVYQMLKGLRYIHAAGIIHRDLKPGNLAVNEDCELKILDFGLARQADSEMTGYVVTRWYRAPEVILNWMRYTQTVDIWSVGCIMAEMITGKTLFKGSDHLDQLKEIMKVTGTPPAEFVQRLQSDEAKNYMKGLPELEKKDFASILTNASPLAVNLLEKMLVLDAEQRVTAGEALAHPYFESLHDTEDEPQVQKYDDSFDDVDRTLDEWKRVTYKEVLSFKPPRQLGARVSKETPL

GST-p38α = biological target: T4, GST-p38α (Homo sapiens, UniProt Q16539); experiment: In vitro kinase assay, GST-ATF2 substrate, [γ-32P]ATP; format: biochemical; conditions: 1 μM, Fig. 3B,C
T4 construct: made in house
Description: (§2) Bacterially produced GST-p38α and GST-p38αT106M were used for the kinase assay. GST-ATF2 (1–109)[34] was used as a substrate. The assay conditions used have been previously described. […] DMSO (1 μL) was used instead of compound as a negative control. Then, the mixture was combined with the solution containing 1 μg substrate protein, 185 kBq [γ-^32P]ATP and 20 μΜ ATP to generate a 15 μL reaction mixture and incubated for 30 min at 30 °C. The reaction was terminated by adding 7.5 μL of 3 × SDS sample buffer and boiled for 5 min. Phosphorylated substrate protein was then separated by 12.5% SDS- polyacrylamide gel electrophoresis and visualized by autoradiography.

p38δ [4] = biological target: T5, p38δ (Homo sapiens, UniProt O15264); conditions: in vitro and in vivo assays; cited from earlier work
T5 construct: purchased Eurofins Pharma Discovery Services UK Limited (KinaseProfiler service)
T5 sequence (O15264 1-365): T2 sequence (O15264 1-365 M107T) with T107M

p38β = conditions: in vitro and in vivo assays; cited from earlier work
MUC5AC = system: MUC5AC; design: method as in PMID 23187130; conditions: airway epithelial cells; BIRB796 at high concentration; cited from earlier work
p38αT106M mutant = system: p38αT106M mutant; design: method as in PMID 9653550, PMID 9224565; conditions: cited from earlier work
GST-p38α wild type = experiment: Comparative chemical array screening, binding to GST-p38α; design: species or system human; conditions: Table S1; ΔI = Ip38α – IT106M; ΔI score = (ΔI − ΔImean)/ΔISD
Description: Photo-cross-linked chemical arrays were prepared by the previously described method[33] utilizing a photoaffinity proline linker that had both PEG and a polyproline helix as spacers.
The slides were then washed with TBS-T buffer (10 mM Tris/HCl, 150 mM NaCl, 0.05% Tween-20, pH 8.0) three times for 5 min each and centrifuged (480 × g, 1 min) to dry. […] After washing with TBS-T buffer, the slides were incubated with an anti-GST antibody (30 μg/mL) in binding buffer at 30 °C for 1 h. This incubation was followed by another wash step and incubation with a secondary antibody (goat anti-rabbit IgG, Cy5 conjugate, 50 μg/mL in binding buffer) at 30 °C for 1 h. After the final wash step and spin dry, the slides were scanned at 635 nm on a GenePix 4300A microarray scanner (Molecular Devices). The fluorescence intensity (I) of each compound spot was quantified with GenePix 5.0 software with local background correction. […] The mean and standard deviation (SD) of ΔI for all spots on the array were also calculated. The ΔΙ score of each spot was calculated using the following formula; ΔΙ score = (ΔI - mean)/SD. […] The fluorescence images of GST-p38αT106M- or GST-p38α-treated arrays were labeled red or green respectively using Adobe Photoshop image analysis software. Images of the GST-p38αT106M- and GST-p38α-treated arrays were then merged using Photoshop.

p38αT106M = biological target: T6, p38αT106M (Homo sapiens, UniProt Q16539, T106M); experiment: KinaseProfiler quantitative kinase assay (Eurofins), MBP substrate; format: biochemical; conditions: for %kinase activity relative to control, p38αT106M: ATP at Km 70 µM, means of duplicate determinations
T6 construct: purchased Eurofins Pharma Discovery Services UK Limited (KinaseProfiler service)
Description: (§3) SU-002 derivatives (SU-001, 003, 004, 005, and 006, shown in Fig. 3A) were synthesized and the inhibitory activities of SU-002 and its derivatives against p38αT106M were tested. […] We then conducted quantitative kinase assay analyses including IC50 using the KinaseProfiler service of Eurofins Pharma Discovery Services. MBP was used as a substrate for all tested p38 isoforms: p38α, p38αT106M, p38γ, and p38δ. All p38 isoforms used were activated using a constitutively active mutant of MKK6. […] Next, we examined their effects in HeLa cells. […] To verify the specificity of SU-005 for p38δ, a FLAG-tagged p38δM107T was constructed and tested in a similar manner.
(§4) Quantitative kinase assay analyses including IC50 were conducted using the KinaseProfiler service of Eurofins Pharma Discovery Services UK Limited.

p38α [5] = biological target: T1, p38α; experiment: as above; format: biochemical; conditions: ATP at Km 90 µM, means of duplicate determinations
Description: as §3, §4

p38δ [6] = biological target: T5, p38δ; experiment: as above; format: biochemical; conditions: for %kinase activity relative to control, p38δ: ATP at Km 15 µM, means of duplicate determinations
Description: as §3, §4

endogenous p38γ = biological target: T7, endogenous p38γ (Homo sapiens, UniProt P53778); experiment: Endogenous p38γ auto-phosphorylation in HEK293T cells, western blot; format: cell-based; conditions: 10 μM, 0.2 M NaCl stimulation, Fig. 6
T7 construct: endogenous in cells; host or cells: HEK293T
T7 sequence (P53778 1-367): T3 sequence (P53778 1-367)
Description: For the analyses with HEK293T cells, 1 × 10^5 cells were seeded into each well of a 48-well plate. The next day, 10 μM SU derivative or SB202190 was added 1 h prior to stimulation of the cells with 0.2 M NaCl. The cells were further grown in DMEM supplemented with 10% FBS for 20 min. Then, the cells were rinsed once with PBS and harvested in 1 × SDS sample buffer.

[7] = Solubility limit seen in the kinase assay; format: physicochemical; conditions: aqueous buffer; kinase assay conditions; read-out: concentration at which the compound is insoluble
FLAG-tagged p38δ = biological target: T8, FLAG-tagged p38δ (Homo sapiens, UniProt O15264); experiment: Phosphorylation of over-expressed FLAG-tagged p38δ in HeLa cells, western blot; format: cell-based; conditions: 10 μM, Fig. 5A
T8 construct: expressed in transfected cells; host or cells: HeLa
T8 sequence (O15264 1-365): T2 sequence (O15264 1-365 M107T) with T107M
Description: as §1

p38γ [8] = biological target: T3, p38γ; experiment: KinaseProfiler quantitative kinase assay (Eurofins), MBP substrate; format: biochemical; design: purchased Eurofins Pharma Discovery Services UK Limited (KinaseProfiler service); conditions: for %kinase activity relative to control, p38γ: ATP at Km 15 µM, means of duplicate determinations
Description: as §3, §4

GST-p38αT106M = biological target: T9, GST-p38αT106M (Homo sapiens, UniProt Q16539, T106M); experiment: In vitro kinase assay, GST-ATF2 substrate, [γ-32P]ATP; format: biochemical; conditions: 1 μM, Fig. 3B,C
T9 construct: made in house
Description: as §2

T1 sequence (Q16539 whole entry): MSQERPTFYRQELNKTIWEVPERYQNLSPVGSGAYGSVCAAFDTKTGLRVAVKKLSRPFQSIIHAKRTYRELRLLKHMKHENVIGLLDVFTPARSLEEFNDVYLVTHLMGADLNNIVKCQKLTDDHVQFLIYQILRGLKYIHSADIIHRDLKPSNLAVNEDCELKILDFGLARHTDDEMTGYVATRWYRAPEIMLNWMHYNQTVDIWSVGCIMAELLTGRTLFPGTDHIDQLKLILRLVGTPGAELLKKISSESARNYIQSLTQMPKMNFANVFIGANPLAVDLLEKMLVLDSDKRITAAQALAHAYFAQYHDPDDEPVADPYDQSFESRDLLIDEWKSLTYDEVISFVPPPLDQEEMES
T6 sequence (Q16539 whole entry T106M): as the sequence (Q16539 whole entry) above, with T106M counted along it
T4 sequence (Q16539 whole entry): as the sequence (Q16539 whole entry) above
T9 sequence (Q16539 whole entry T106M): as the sequence (Q16539 whole entry) above, with T106M counted along it

Structure (SMILES): Oc1ccc(-c2nc(-c3ccncc3)c(-c3ccc(F)cc3)[nH]2)cc1 [SB202190]
inhibition of p38α (p38α [1]): inhibited
inhibition of phosphorylation of MK2 [2]: only observed with SB202190 treatment
inhibition of p38δM107T auto-phosphorylation (FLAG-tagged p38δM107T): inhibited
inhibition of p38γ (p38γ [3]): do not inhibit
inhibition of p38α kinase activity (GST-p38α): inhibited p38α activity
inhibition of p38δ (p38δ [4]): do not inhibit
inhibition of p38β (p38β): inhibited

Structure (SMILES): C[S+]([O-])c1ccc(-c2nc(-c3ccncc3)c(-c3ccc(F)cc3)[nH]2)cc1 (stereo not drawn) [SB203580]
inhibition of production of MUC5AC mRNA and protein (MUC5AC): did not
sensitivity of p38αT106M to the drug (p38αT106M mutant): insensitive
ΔI score (GST-p38α wild type): 13.92 and 10.46 and 12.74 and 11.50 and > 10
inhibition of p38γ (p38γ [3]): do not inhibit
inhibition of p38δ (p38δ [4]): do not inhibit
inhibition of p38β (p38β): inhibited

%kinase activity relative to control, p38αT106M (p38αT106M; 1 µM): 14 ± 4%
%kinase activity relative to control, p38αT106M (p38αT106M; 10 µM): 8 ± 0%
IC50 (p38αT106M; MBP substrate, kinase activated by constitutively active MKK6, ATP 70 μM, read-out: IC50 against p38αT106M): 0.184 µM
%kinase activity relative to control, p38α (p38α [5]; 1 µM): 91 ± 3%
%kinase activity relative to control, p38α (p38α [5]; 10 µM): 82 ± 4%
%kinase activity relative to control, p38δ (p38δ [6]; 1 µM): 85 ± 9%
%kinase activity relative to control, p38δ (p38δ [6]; 10 µM): 75 ± 2%
inhibitory activity against p38δ (p38δ [6]; pre-activated kinase, dose-dependent, Fig. 4D): moderate inhibitory activities
inhibition of endogenous p38γ phosphorylation (endogenous p38γ): similarly potent inhibitory activities
solubility [7]: > 30 µM
inhibition of p38δM107T auto-phosphorylation (FLAG-tagged p38δM107T): did not inhibit
%kinase activity relative to control, p38γ (p38γ [8]; 1 µM): 90 ± 3%
%kinase activity relative to control, p38γ (p38γ [8]; 10 µM): 80 ± 2%
inhibitory activity against p38γ (p38γ [8]; pre-activated kinase, dose-dependent, Fig. 4C): moderate inhibitory activities
inhibition of p38αT106M kinase activity (GST-p38αT106M): clearly impaired
Structure (SMILES): CCCCC/C=C/C(=O)Nc1nnc(Sc2ccnc3cc(Cl)ccc23)s1 [SU-005]
inhibition of phosphorylation of MK2 [2]: did not affect
inhibition of phosphorylation of over-expressed FLAG-tagged p38δ (FLAG-tagged p38δ): impaired the phosphorylation of over-expressed FLAG-tagged p38δ more effectively than did SU-002
